From patent US12708630B2, “Combined therapy of 4′-thio-5-aza-2′-deoxycytidine and Venetoclax” (PINOTBIO, INC., priority 2021, dated 2026)
“Also recorded” adds a separate entry of the source. Like-named read-outs stand apart in the source and are kept apart here.

Key:
[1] = tested on: RRM1 protein, dCTP and dTTP; experiment: RRM1 expression and pyrimidine level in cells; type: cell-based
Excerpt: The reduction of dCTP and dTTP, which act as important precursors for cancer cells to replicate DNA, can cause replication stress and generate a strong DNA damage response.

H2AX, Chk1, p53 = experiment: DNA damage response markers; type: cell-based
DNMT3B = DNMT3B (Homo sapiens, UniProt Q9UBC3); experiment: Western blotting of Molm13 xenograft cancer tissues, DNMT3B; type: in vivo; set-up: cancer tissues were harvested and analyzed by Western blotting; from tissue; host or cells: Molm13 leukemia xenograft cancer tissue
[2] = tested on: systemic MV4-11 engraftment model; conditions: for survival: oral
Protocol: After establishing a systemic MV4-11 engraftment model that more accurately depicts the disease in humans, Aza-T-dCyd was administered orally at doses ranging from 0.4 to 1.5 mg/kg.
After establishment of the systemic MV4-11 engraftment model, Aza-T-dCyd was administered orally at doses of 1.5, 2.0, and 2.5 mg/kg (using the standard dose/dosing schedule used in preclinical trials for decitabine/azacytidine).
After establishing a systemic MV4-11 engraftment model, blood was collected at pre-treatment (Day 21) and mid-treatment (Day 36, 56, 77) in the Aza-T-dCyd and Decitabine/Azacytidine groups and analyzed for complete blood count (CBC) values.
To determine whether the anti-cancer efficacy in the systemic MV4-11 engraftment model was directly related to the ability to suppress the number of cancer cells, we performed experiments to measure body luminescence after systemic engraftment using the luciferase-transfected Mv4-11 cell line.

NCI-H522 (NSCLC) = NCI-H522 (NSCLC) xenograft model; type: in vivo; conditions: nude mouse, 2 mg/kg, (6) cycles
Protocol: The efficacy of Aza-T-dCyd was confirmed by tumor growth curves after administration of Aza-T-dCyd in various solid cancer xenograft models. Aza-T-dCyd at a dose of 1~2 mg/kg was administered repeatedly for 2~6 cycles in QD×5, showing excellent anti-cancer effects (evidenced by test/control (T/C) value≤40%).

MV4-11 AML cells = experiment: MV4-11 AML xenograft implanted subcutaneously, combination with venetoclax; type: in vivo, mice; set-up: anti-cancer effect (tumor volume): dose or concentration left out as unconfirmed
Protocol: After establishing a xenograft systemic AML model in which MV4-11 AML cells were implanted subcutaneously in mice, Aza-T-dCyd alone at 2.0 mpk for 1 cycle (5 days on, 2 days off, 5 days on, 9 days off) was administered (PO) or Aza-T-dCyd 0.5, 1.0 or 2.0 mpk plus venetoclax 50 mpk or 100 mpk administered orally (PO) for 1 cycle (venetoclax on for 5 days, off for 2 days, repeated for 3 weeks). Anti-cancer efficacy was determined in disease models in which azacitidine 5.0 mpk was administered intraperitoneally (IP) alone or in combination with optimal dose of azacitidine (2.5 mpk) and venetoclax 50 mpk or 100 mpk as a control.

AML cell lines = experiment: Cell viability inhibition in AML cell lines; type: cell-based; conditions: various AML cell lines, FIG. 19
Protocol: The growth-inhibitory activity of Aza-T-dCyd, a DNMT1 inhibitor, was measured in leukemia cell lines to determine its inhibitory effect on cell proliferation.

MDS/AML model = experiment: AUC exposure versus efficacy in the MDS/AML model; type: in vivo

SMILES: Nc1ncn([C@H]2CC(O)[C@@H](CO)S2)c(=O)n1 (stereo partly drawn) [Aza-T-dCyd, 4′-thio-5-aza-2′-deoxycytidine]
- RRM1 protein expression [1]: inhibited the expression of RRM1 protein
- amount of dCTP and dTTP in the cells [1]: decreased the amount of dCTP and dTTP
- H2AX phosphorylation (H2AX, Chk1, p53): increased H2AX phosphorylation
- expression of p53 protein (H2AX, Chk1, p53): increased expression of p53 protein
- phosphorylation of Chk1 (H2AX, Chk1, p53): increased phosphorylation of Chk1
- DNMT3B protein of approximately 90 kDa (DNMT3B; Molm13 AML xenograft, above 0.4 mg/kg): clear reduction of DNMT3B protein
- DNMT3B in cancer tissues (Western blotting) (DNMT3B; Molm13 xenograft, after administration): strongly inhibited DNMT1 and DNMT3B in a concentration-dependent manner
- anti-AML activity and survival ([2]; Aza-T-dCyd oral 1.5, 2.0 and 2.5 mg/kg, decitabine/azacytidine at standard preclinical dose/schedule): very good anti-AML activity and improved survival
- body luminescence ([2]; luciferase-transfected Mv4-11 cell line, systemic engraftment): inhibited body luminescence more strongly than the actual Azacytidine treatment
- complete blood count (WBC, RBC, Neutrophil, Platelet) ([2]; mouse, in vivo): no changes
- survival ([2]; highest dose (range 0.4 to 1.5 mg/kg)): more than half of the mice survived to the end of the experiment
- survival ([2]; lowest dose of 0.4 mg/kg): statistically significant survival improvement
- Optimal T/C (%) (test/control) (NCI-H522 (NSCLC)): 31%
- anti-cancer effect (tumor volume) (MV4-11 AML cells; Aza-T-dCyd 0.5 mpk with venetoclax, FIGS. 30 and 31): complete tumor regression
- anti-cancer efficacy of monotherapy versus Azacytidine/Venetoclax (MV4-11 AML cells; Aza-T-dCyd 2.0 mpk alone, FIGS. 28 to 33): as effective as the Azacytidine/Venetoclax group; also recorded: anti-cancer efficacy equivalent to or superior to that of Azacytidine/Venetoclax combination
- anti-cancer effect (tumor volume), single agent (MV4-11 AML cells; administered alone (Aza-T-dCyd 2 mpk), FIGS. 30 and 31, listed as NTX-301): sufficiently working; also recorded: sufficiently anti-tumorigenic
- cell viability inhibition (AML cell lines): excellent cell viability inhibition
- AUC value at which efficacy is shown (MDS/AML model; MDS/AML model): 60 ng·h/mL
- AUC value of best therapeutic efficacy (MDS/AML model; MDS/AML model): 200 to 250 ng·h/mL
- AUC of best efficacy relative to the HNSTD (MDS/AML model; most sensitive species): about 25%
- AUC of best efficacy relative to the NOAEL value (MDS/AML model; most sensitive species): about 50%
